This note sets out measurements from US20260132132A1, “3A,4,5,6-TETRAHYDRO-1 H-PYRAZOLO[3,4-C]PYRIDIN-7(7AH)-ONE DERIVATIVES AS FACTOR XIIA INHIBITORS” (KALVISTA PHARMACEUTICALS LIMITED, priority 2022, published 2026).

This assay concerns the target T1, Human Factor XIIa (hFXIIa) (Homo sapiens, UniProt P00748).
T1 construct: purchased Enzyme Research Laboratories
T1 sequence (P00748 373-615 limits assumed): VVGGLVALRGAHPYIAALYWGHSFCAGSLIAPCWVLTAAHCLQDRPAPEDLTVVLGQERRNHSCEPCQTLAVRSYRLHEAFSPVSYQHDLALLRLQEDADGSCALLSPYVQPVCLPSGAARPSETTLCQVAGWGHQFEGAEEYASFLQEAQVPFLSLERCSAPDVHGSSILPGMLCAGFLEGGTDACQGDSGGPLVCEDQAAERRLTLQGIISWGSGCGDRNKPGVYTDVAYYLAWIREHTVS
T1 sequence (P00748 20-372 partner limits assumed): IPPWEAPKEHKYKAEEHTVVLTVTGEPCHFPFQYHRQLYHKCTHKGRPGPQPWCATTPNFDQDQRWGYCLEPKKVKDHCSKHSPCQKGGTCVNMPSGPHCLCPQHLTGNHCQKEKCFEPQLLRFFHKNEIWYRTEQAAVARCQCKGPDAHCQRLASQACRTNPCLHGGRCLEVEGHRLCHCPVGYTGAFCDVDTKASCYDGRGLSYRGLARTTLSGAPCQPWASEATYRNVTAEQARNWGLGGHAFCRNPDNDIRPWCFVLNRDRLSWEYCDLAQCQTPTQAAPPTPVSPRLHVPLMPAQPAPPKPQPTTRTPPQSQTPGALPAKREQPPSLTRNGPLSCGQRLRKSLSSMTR
Description: Determination of Human Factor XIIa (hFXIIa) inhibition, fluorogenic substrate IC50 assay. In kind it is biochemical. The following applies: fluorogenic substrate H-DPro-Phe-Arg-AFC at Km, 25° C., read-out: Human FXIIa IC50. The method, then: Determination of Human Factor XIIa (hFXIIa) inhibition
The Km for the cleavage of the substrate by hFXIIa was determined by standard transformation of the Michaelis-Menten equation, with subsequent inhibition assays performed at substrate Km concentration.

Regarding `Cc1cc(CNC(=O)c2nn(-c3cccc(Cl)c3)c3c2CCN(c2ccc4c(c2)CN(C)CC4)C3=O)[nH]n1` [Example 1065, 1-(3-chlorophenyl)-6-(2-methyl-1,2,3,4-tetrahydroisoquinolin-7-yl)-N-((3-methyl-1H-pyrazol-5-yl)methyl)-7-oxo-4,5,6,7-tetrahydro-1H-pyrazolo[3,4-c]pyridine-3-carboxamide], the IC50 was 10 to 100 nM.

As to `CN1CCc2ccc(N3CCc4c(C(=O)NC[C@H]5COCCO5)nn(-c5cccc(Cl)c5)c4C3=O)cc2C1=O` [Example 1246, (S)-N-((1,4-dioxan-2-yl)methyl)-1-(3-chlorophenyl)-6-(2-methyl-1-oxo-1,2,3,4-tetrahydroisoquinolin-7-yl)-7-oxo-4,5,6,7-tetrahydro-1H-pyrazolo[3,4-c]pyridine-3-carboxamide], the IC50 fell in the range of 300 to 1000 nM. As for `C[C@@H](O)CN1CCc2ccc(N3CCc4c(C(=O)NCC5CC5)nn(-c5cccc(Cl)c5)c4C3=O)cc2C1` [Example 1101, (R)-1-(3-chlorophenyl)-N-(cyclopropylmethyl)-6-(2-(2-hydroxypropyl)-1,2,3,4-tetrahydroisoquinolin-7-yl)-7-oxo-4,5,6,7-tetrahydro-1H-pyrazolo[3,4-c]pyridine-3-carboxamide], the figure is 300 to 1000 nM; as for `CN(C)C(=O)c1cnnc(N2CCc3c(C(=O)NCC4CC4)nn(-c4cccc(Cl)c4)c3C2=O)c1` [Example 1298, 1-(3-chlorophenyl)-N-(cyclopropylmethyl)-6-(5-(dimethylcarbamoyl)pyridazin-3-yl)-7-oxo-4,5,6,7-tetrahydro-1H-pyrazolo[3,4-c]pyridine-3-carboxamide], 3000 to 10000 nM. Regarding `Cc1nc2c(C#N)nn(-c3cccc(Cl)c3)c2c(=O)n1-c1ccc2c(c1)CN(C)CC2` [Example 3002, 1-(3-Chlorophenyl)-5-methyl-6-(2-methyl-1,2,3,4-tetrahydroisoquinolin-7-yl)-7-oxo-6,7-dihydro-1H-pyrazolo[4,3-d]pyrimidine-3-carbonitrile], the IC50 lay within 100 to 300 nM. As for `CN1CCc2ccc(N3CCc4c(C(=O)NCC(O)C5CC5)nn(-c5cccc(Cl)c5)c4C3=O)cc2C1` (stereo not drawn) [Example 1058, 1-(3-chlorophenyl)-N-(2-cyclopropyl-2-hydroxyethyl)-6-(2-methyl-1,2,3,4-tetrahydroisoquinolin-7-yl)-7-oxo-4,5,6,7-tetrahydro-1H-pyrazolo[3,4-c]pyridine-3-carboxamide], the figure is 300 to 1000 nM. As for `O=C(NCC1CC1)c1nn(-c2cccc(Cl)c2)c2c1CCN(c1cccc(CN3CC4CC4C3)c1)C2=O` (stereo not drawn) [Example 1073, 6-(3-((3-azabicyclo[3.1.0]hexan-3-yl)methyl)phenyl)-1-(3-chlorophenyl)-N-(cyclopropylmethyl)-7-oxo-4,5,6,7-tetrahydro-1H-pyrazolo[3,4-c]pyridine-3-carboxamide], the figure is 1000 to 3000 nM; as for `CN1CCc2ccc(N3CCc4c(C(=O)NCC5COC5)nn(-c5cccc(Cl)c5)c4C3=O)cc2C1` [Example 1047, 1-(3-chlorophenyl)-6-(2-methyl-1,2,3,4-tetrahydroisoquinolin-7-yl)-N-(oxetan-3-ylmethyl)-7-oxo-4,5,6,7-tetrahydro-1H-pyrazolo[3,4-c]pyridine-3-carboxamide], 300 to 1000 nM. For `O=C(O)CN1CCc2ccc(N3CCc4c(C(=O)NCC5CC5)nn(-c5cccc(Cl)c5)c4C3=O)cc2C1` [Example 1095, 2-(7-(1-(3-chlorophenyl)-3-((cyclopropylmethyl)carbamoyl)-7-oxo-1,4,5,7-tetrahydro-6H-pyrazolo[3,4-c]pyridin-6-yl)-3,4-dihydroisoquinolin-2(1H)-yl)acetic acid] the value was 1000 to 3000 nM; for `CCOC(=O)c1nn(-c2cc(C)cc(CN)c2)c2c1CCN(c1ccc3c(c1)C(=O)N(C)CC3)C2=O` [Example 2022, ethyl 1-(3-(aminomethyl)-5-methylphenyl)-6-(2-methyl-1-oxo-1,2,3,4-tetrahydroisoquinolin-7-yl)-7-oxo-4,5,6,7-tetrahydro-1H-pyrazolo[3,4-c]pyridine-3-carboxylate], 10 to 100 nM; for `C[C@@H](CO)N1CCc2ccc(N3CCc4c(C(=O)NCC5CC5)nn(-c5cccc(Cl)c5)c4C3=O)cc2C1` [Example 1113, (S)-1-(3-chlorophenyl)-N-(cyclopropylmethyl)-6-(2-(1-hydroxypropan-2-yl)-1,2,3,4-tetrahydroisoquinolin-7-yl)-7-oxo-4,5,6,7-tetrahydro-1H-pyrazolo[3,4-c]pyridine-3-carboxamide], 300 to 1000 nM.

Turning to `COCC(C)N1CCc2ccc(N3CCc4c(C(=O)NCC5CC5)nn(-c5cccc(Cl)c5)c4C3=O)cc2C1` (stereo not drawn) [Example 1060, 1-(3-chlorophenyl)-N-(cyclopropylmethyl)-6-(2-(1-methoxypropan-2-yl)-1,2,3,4-tetrahydroisoquinolin-7-yl)-7-oxo-4,5,6,7-tetrahydro-1H-pyrazolo[3,4-c]pyridine-3-carboxamide], the IC50 was in the range of 100 to 300 nM. `CN1CCc2ccc(N3CCc4c(C(=O)NC5CCOC5)nn(-c5cccc(Cl)c5)c4C3=O)cc2C1` (stereo not drawn) [Example 1042, 1-(3-chlorophenyl)-6-(2-methyl-1,2,3,4-tetrahydroisoquinolin-7-yl)-7-oxo-N-(tetrahydrofuran-3-yl)-4,5,6,7-tetrahydro-1H-pyrazolo[3,4-c]pyridine-3-carboxamide]: the IC50 is 300 to 1000 nM. For the compound `O=C(NCC1CC1)c1nn(-c2cccc(Cl)c2)c2c1CCN(c1ccc3c(c1)C(=O)N(CCO)CCC3)C2=O` [Example 1294, 1-(3-chlorophenyl)-N-(cyclopropylmethyl)-6-(2-(2-hydroxyethyl)-1-oxo-2,3,4,5-tetrahydro-1H-benzo[c]azepin-8-yl)-7-oxo-4,5,6,7-tetrahydro-1H-pyrazolo[3,4-c]pyridine-3-carboxamide], the IC50 lay within 100 to 300 nM.

With `CCOC(=O)c1nn(-c2cccc(Cl)c2)c2c1CCN(c1ccc3c(c1)C(=O)N(C)CC3)C2=O` [Example 1284, ethyl 1-(3-chlorophenyl)-6-(2-methyl-1-oxo-1,2,3,4-tetrahydroisoquinolin-7-yl)-7-oxo-4,5,6,7-tetrahydro-1H-pyrazolo[3,4-c]pyridine-3-carboxylate], the IC50 was in the range of 300 to 1000 nM. As for `CCOC(=O)c1nn(-c2cccc(Cl)c2)c2c1CCN(c1cccc(CN(C)C(=O)CO)c1)C2=O` [Example 1322, ethyl 1-(3-chlorophenyl)-6-(3-((2-hydroxy-N-methylacetamido)methyl)phenyl)-7-oxo-4,5,6,7-tetrahydro-1H-pyrazolo[3,4-c]pyridine-3-carboxylate], the figure is 10000 to 40000 nM; as for `CN1CCc2ccc(N3CCc4c(C(=O)NCC5CC5)nn(-c5cc(Cl)ccn5)c4C3=O)cc2C1=O` [Example 2016, 1-(4-chloropyridin-2-yl)-N-(cyclopropylmethyl)-6-(2-methyl-1-oxo-1,2,3,4-tetrahydroisoquinolin-7-yl)-7-oxo-4,5,6,7-tetrahydro-1H-pyrazolo[3,4-c]pyridine-3-carboxamide], 3000 to 10000 nM; as for `CCN1CCc2ccc(N3CCc4c(C(=O)N[C@H]5CCOC5)nn(-c5cccc(Cl)c5)c4C3=O)cc2C1` [Example 1090, (S)-1-(3-chlorophenyl)-6-(2-ethyl-1,2,3,4-tetrahydroisoquinolin-7-yl)-7-oxo-N-(tetrahydrofuran-3-yl)-4,5,6,7-tetrahydro-1H-pyrazolo[3,4-c]pyridine-3-carboxamide], 100 to 300 nM.

For orientation: IC50 means the concentration needed to halve the response being measured.
